Three compounds from patent US7404945B2, “Method of evaluating pharmacological effects of medicine” (Tokyo Gas Company Limited, priority 2002, dated 2008) can be followed below.

Holding throughout (format): in vivo
In one assay the test system is α-glucosidase. Put plainly: Glc-[U-13C]Glc breath test. Particulars: rats, n=2. The text has this: The pharmacological effect of acarbose is the inhibition of α-glucosidase. Glc-[U-^13C]Glc (see Production Example 2) which is a substrate for α-glucosidase is provided as a pharmacological effect diagnostic reagent and a screening reagent.
In another assay the target is T1, DOPA decarboxylase (Rattus norvegicus, UniProt P14173).
T1 construct: from tissue; host or cells: living rat (whole-animal breath test)
T1 sequence (P14173 1-480): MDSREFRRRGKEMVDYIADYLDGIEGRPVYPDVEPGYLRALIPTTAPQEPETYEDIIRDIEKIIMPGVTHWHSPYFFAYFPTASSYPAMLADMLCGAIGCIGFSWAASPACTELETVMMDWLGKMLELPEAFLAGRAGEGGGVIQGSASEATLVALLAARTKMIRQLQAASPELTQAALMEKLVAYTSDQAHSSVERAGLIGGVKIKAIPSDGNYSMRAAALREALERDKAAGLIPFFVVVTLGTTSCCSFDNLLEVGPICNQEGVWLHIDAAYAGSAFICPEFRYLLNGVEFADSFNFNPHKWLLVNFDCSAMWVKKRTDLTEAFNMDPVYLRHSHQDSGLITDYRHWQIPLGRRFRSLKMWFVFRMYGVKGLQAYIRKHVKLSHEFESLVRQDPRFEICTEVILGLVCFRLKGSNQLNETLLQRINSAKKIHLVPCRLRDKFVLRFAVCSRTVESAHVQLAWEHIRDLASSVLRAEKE
Briefly: [1-13C]DOPA breath test. To be noted: rats. The protocol:
The pharmacological effect of benserazide is the inhibition of DOPA decarboxylase. [1-^13C]DOPA (see Production Example 1) which is a substrate for DOPA decarboxylase is provided as a pharmacological effect diagnostic reagent and a screening reagent. Comparison was made in the [1-^13C]DOPA breath test on rats which were administered intraperitoneally with benserazide hydrochloride (Sigma) at a dose of 50 mg/kg three times (i.e., in the morning and evening of the day before the [1-^13C]DOPA breath test and 30 minutes before the breath test was started on the day of the test) (administration group) and rats without administration (control group).
The rats of the administration group and the control group which had been fasted overnight were fixed supinely under anesthesia. […] When the CO2 concentration stabilized, [1-^13C]DOPA was administered at a dose of 50 mg/kg through the femoral vein.
Output data from the ^13CO2 analyzer were AD-converted and input to a personal computer (Apple Power Macintosh 8500). […]
Δ^13C (‰) was calculated from the ^13C level in the exhaled CO2 at each time point (^13Ctmin) and the ^13C level in the standard CO2 (^13Cstd) according to the following equation: Δ^13C(‰)=[(^13Ctmin−^13C0min)/^13Cstd]×1000

A further assay concerns pancreatic protease. Put plainly: Bz-Arg-[1-13C]Ala breath test. To be noted: rats. The protocol:
The pharmacological effect of camostat mesylate is the inhibition of pancreatic protease. Bz-Arg-[1-^13C]Ala (see Production Example 3) which is a substrate for pancreatic protease is provided as a pharmacological effect diagnostic reagent and a screening reagent. […] The results of the Bz-Arg-[1-^13C]Ala breath test were as follows: in the both groups, the Δ^13C increased linearly until at the time point of 15 minutes after the administration; twenty minutes after the administration, the Δ^13C reached 41.29±7.49‰ in the control group (n=3), while the Δ^13C reached 27.64±4.86‰ in the administration group (n=3); thus, the Δ^13C decreased in the administration group (FIG. 7). From the results, it was confirmed that the function of the target enzyme for camostat mesylate was inhibited under the camostat mesylate administration conditions of the present example.

Molecules are shown by their SMILES. Where a name gives a salt, the structure may show the parent alone.

Regarding `C[C@H]1O[C@H](O[C@H]2[C@H](O)[C@@H](O)[C@@H](O[C@H]3[C@H](O)[C@@H](O)C(O)O[C@@H]3CO)O[C@@H]2CO)[C@H](O)[C@@H](O)[C@@H]1N[C@H]1C=C(CO)[C@@H](O)[C@H](O)[C@H]1O` (stereo partly shown) [acarbose], the figures for the “Δ13C in 20 minutes” value with α-glucosidase (acarbose 2 mg/kg oral concurrently with Glc-[U-13C]Glc 25 mg/kg oral), with α-glucosidase (acarbose 4 mg/kg oral concurrently with Glc-[U-13C]Glc 25 mg/kg oral) and in the assay with α-glucosidase (acarbose 10 mg/kg oral concurrently with Glc-[U-13C]Glc 25 mg/kg oral) were 37.06 ±0.16 ‰, 26.01 ±0.38 ‰ and 9.86±0.66 ‰, respectively.
As to `NC(CO)C(=O)NNCc1ccc(O)c(O)c1O` (stereo not shown) [benserazide, benserazide hydrochloride], at DOPA decarboxylase (rat, ip, benserazide 50 mg/kg i.p. three times, [1-13C]DOPA breath test, read-out: inhibition of the function of the target enzyme), the inhibition at 50 mg/kg is ~100%. Also, the “Δ13C (degree of increase of the 13C level in exhaled CO2)” value at DOPA decarboxylase (benserazide hydrochloride 50 mg/kg i.p. three times, [1-13C]DOPA 50 mg/kg femoral vein, 20 minutes after the administration) was “about 5 ‰”.
As for `CN(C)C(=O)COC(=O)Cc1ccc(OC(=O)c2ccc(NC(=N)N)cc2)cc1` [camostat mesylate], the “function of the target enzyme” value with pancreatic protease (camostat mesylate 20 mg/kg oral) is on record as “inhibited”. The “Δ13C twenty minutes after the administration” value in the assay on pancreatic protease (camostat mesylate 20 mg/kg oral concurrently with Bz-Arg-[1-13C]Ala 12.2 mg/kg oral, n=3) is 27.64±4.86 ‰.
